The test system of experiment [1] is HA-polyubiquitylated proteins. The experiment in a line: UV-induced degradation of HA-polyubiquitylated proteins (anti-HA Western blot). It counts as cell-based, human. To be noted: A-T cells; 50 nM Bafl. (In western blotting, separated proteins are transferred to a membrane and probed.)
The subject of experiment [2] is HA-polyubiquitylated proteins. The experiment is described as above. In kind it is cell-based, human. To be noted: for UV-induced degradation of HA-Lys48-linked polyubiquitylated proteins: HA-Lys48 only ubiquitin construct; for UV-induced decrease of HA-polyubiquitylated proteins: MG132 1 μM or Bafl 1 nM 18 h, 3 h recovery; for UV-induced decrease of HA-polyubiquitylated proteins / UV-induced degradation of HA-polyubiquitylated proteins: UV 25 mJ/m2; for UV-induced degradation of HA-polyubiquitylated proteins: MG132 1 nm or 3-MA 10 nm for 18 h. How it is done:
Immunoblotting Analysis of HA-ubiquitin conjugated proteins in cells exposed to UV radiation. Cells ([…]) were transfected with a hemagglutinin (HA)-ubiquitin plasmid using the PolyFect transfection reagent (Qiagen; Valencia, CA) as described (24). Twenty-four h after transfection, cells were treated with either proteasome inhibitor MG132 (1 μM) (Boston Biochemicals; Cambridge, MA) or autophagy inhibitor Bafilomycin A1 (Bafl) (1 nM) (Sigma-Aldrich) or 3-Methyladenine (3-MA) (100 nM) for 18 h. Cells were exposed to UV radiation (25 mJoules, using BioRad GS Gene Linker™ UV Chamber) and/or left untreated. Cells were then allowed to recover in the presence of inhibitors for 3 hr. Cell lysis, SDS-PAGE, and immunoblotting analysis to detect HA-ubiquitin conjugated proteins using anti-HA antibodies was carried out as described herein.
Decrease in the steady state levels of polyubiquitylated proteins could be due to their increased deubiquitylation or increased degradation via the 26S proteasome. Also, the ubiquitin antibody used in the experiment herein is known to cross-react with free ISG15/UCRP (44), and ISG15 protein is elevated in A-T cells (20). An HA-ubiquitin construct was transfected and then the steady state levels of the HA-polyubiquitylated proteins was assessed (to rule out the possibility of protein polyubiquitylation versus protein polyISGlyation), in the absence or presence of the proteasome inhibitor MG132 (to rule out the possibility of protein deubiquitylation versus protein degradation), in UV treated A-T and ATM+ cells. In FIG. 8B, A-T and ATM+ cells were transfected with a HA-ubiquitin construct. Cells were then treated with MG132 (1 μM) or Bafl (1 nM) for 18 hours and exposed to UV radiation (25 mJ/m2). After recovery in the presence of inhibitors for an additional three hours, cells were lysed. Cell extracts were analyzed by Western blotting for HA-polyubiquitylated proteins and actin using anti-HA and anti-actin antibodies respectively. Intensity of the total HA-polyubiquitylated proteins was quantitated using BioRad Quantity One software and results shown in FIG. 8C.
To complement the results shown in FIG. 8B, another construct was used that expresses HA-ubiquitin and that can preferentially make polyubiquitin chains linked through Lys48 on the substrates (20). In FIG. 8D, A-T and ATM+ cells were transfected with HA-Lys48 only ubiquitin construct. The inhibitor and UV treatments, cell lysis, SDS-PAGE, and immunoblotting analysis to detect HA-ubiquitin conjugated proteins using anti-HA antibodies was carried out as described herein. The experiment was repeated two times with the reproducible results. Similar results were obtained using this distinct HA-ubiquitin construct (FIG. 8D) as obtained herein (FIG. 8B); UV induced MG132- and Bafilomycin-resistant degradation of HA-Lys48-linked polyubiquitylated proteins in A-T cells, but not in ATM+ cells.
For FIG. 14A, HA-ubiquitin-transfected A-T/LV-control shRNA cells were exposed to UV (25 mJ/m2). After three hours of recovery, assessment of HA-polyubiquitylated proteins was carried out as described herein for FIG. 8B. In FIG. 14B, HA-ubiquitin-transfected A-T/LV-control shRNA cells were treated with Bafl (1 nm for 18 h). Cells were then exposed to UV (25 mJ/m2). After three hours of recovery in the presence of the inhibitor, assessment of HA-polyubiquitylated proteins was carried out as described for FIG. 14A. For FIG. 14C, HA-ubiquitin-transfected A-T/LV-control shRNA cells were treated with MG132 (1 nm for 18 h). Cells were then exposed to UV (25 mJ/m2). After three hours of recovery in the presence of the inhibitor, assessment of HA-polyubiquitylated proteins was carried out as described for FIG. 14A. For FIG. 14D, HA-ubiquitin-transfected A-T/LV-control shRNA cells were treated with 3-MA (10 nm for 18 h). Cells were then exposed to UV (25 mJ/m2). […]

Experiment [3] has as its system polyubiquitylated proteins. The experiment in a line: UV-induced degradation of polyubiquitylated proteins in organotypic cerebellar brain slices. It counts as cell-based, mice. The note with it: Bafilomycin A1 18 hrs, UV 150 mJ. Here is the method:
Experiments were conducted to determine if UV would induce degradation of the ubiquitin-conjugated cellular proteins in A-T organotypic brain slices grown in culture, similar to the findings described herein for A-T cells (See FIGS. 8A-8B). Two-month-old mice were used irrespective of the gender. Cerebellar organotypic brain slices (400 μm thick) from three mice were obtained using a McIlwain tissue chopper (The Mickle Lab Eng. Co. Ltd). Slices from two A-T mice and three ATM+/− mice were pooled and randomly placed on Millicell culture plate inserts (Millipore, MA). Brain slices were then incubated for 1 day in OptiMem-based medium at 37° C. in a humidified atmosphere of 5% CO2 and 95% air. One day later, slices were treated with Bafilomycin A1 for 18 hrs. Slices were then exposed to UV (150 mJ)) or left untreated. After three hours, tissue lysates were prepared as described herein. Lysates were then analyzed by Western analysis using anti-ubiquitin antibody as described herein, and the results shown in FIG. 17A. Intensity of the total polyubiquitylated proteins and free ubiquitin was quantitated using BioRad Quantity One software. All control values (−UV and +Bafl) were normalized to 100%, and values for experimental treatments were expressed as percent variations over control to give the results shown in FIG. 17B. […]

For experiment [4], the system named is p53. The experiment can be described thus: p53 turnover with CHX with or without MG132. In kind it is cell-based, human. The note with it: ATM+ cells, MG132 10 μM, CHX 10 μg/ml, 6 hours. Here is the method:
Both p53 and STAT3 are known targets of the ubiquitin/26S proteasome pathway. To determine whether steady state level of these proteins is regulated by ATM, turnover of both p53 and STAT3 were measured. In FIG. 2C, FT169A (A-T) and FT169A (ATM+) cells were treated with the protein synthesis inhibitor CHX (10 μg/ml) in the presence (lanes 3 and 6) or absence (lanes 2 and 5) of the proteasome inhibitor MG132 (10 μM) for 6 hours. Cell lysates were analyzed by immunoblotting using an anti-p53 antibody (upper row). The intensity of the p53 bands was measured using a Kodak Image station 2000R […]. Results are shown in the bar graph (right panel). The filter used for immunoblotting was stained with Ponceau S to assure equal protein loading (lower row). […] By contrast, p53 protein was rapidly degraded within 6 hours of CHX treatment in FT169A (ATM+) cells (FIG. 2C, lanes 4 and 5, and bar graph for p53 band quantization).

Residues, ends and D or L forms follow the SMILES beside them. *: point of attachment. Cbz = O=C(OCc1ccccc1)*

On to `CO/C1=C\C(C)=C\[C@@H](C)[C@@H](O)[C@@H](C)C/C(C)=C/C=C/[C@H](OC)[C@@H]([C@@H](C)[C@@H](O)[C@H](C)[C@@]2(O)C[C@@H](O)[C@H](C)[C@@H](C(C)C)O2)OC1=O` [Bafilomycin A1], for which the “UV-induced degradation of cellular proteins” value in experiment [1] was “failed to protect”. Also, in experiment [2] (A-T cells), the “UV-induced degradation of HA-Lys48-linked polyubiquitylated proteins” value is “resistant” and the “UV-induced decrease of HA-polyubiquitylated proteins” value (“UV-induced decrease” for short) was “failed to block”. Besides, the “UV-induced decrease” value in experiment [2] (ATM+ cells) was “significantly blocked”. In experiment [3] (A-T brain slices), the “UV-mediated degradation of polyubiquitylated proteins” value is on record as “failed to protect”. For the same compound, the “UV-induced degradation of polyubiquitylated proteins” value in experiment [3] (ATM+/− brain slices) is “markedly protected”.

`CC(C)C[C@@H](C=O)NC(=O)[C@H](CC(C)C)NC(=O)[C@H](CC(C)C)NC(=O)OCc1ccccc1` [MG132] (Cbz-Leu-Leu-Leu-aldehyde): in experiment [4], the “turnover of p53 in the presence of CHX” value is “blocked”. Also, the “UV-induced degradation of HA-Lys48-linked polyubiquitylated proteins” value in experiment [2] (A-T cells) was “resistant”. The “UV-induced decrease” value in experiment [2] (A-T cells) is on record as “failed to protect”; in experiment [2] (ATM+ cells), “completely blocked”. The “UV-induced degradation of HA-polyubiquitylated proteins” value in experiment [2] (A-T/LV-ISG15 shRNA (ISG15-silenced) cells) is “completely block”; in experiment [2] (A-T/LV-control shRNA cells), “failed to block”.

The values are drawn from patent publication US12085575B2, “Compositions and methods for detecting proteinopathies” (BOARD OF SUPERVISORS OF LOUISIANA STATE UNIVERSITY AND …, priority 2011, dated 2024).
